From US6630583B1, “Antibiotics and methods of using the same” (priority 1998, dated 2003) come the findings set out here.

Assay [1] concerns T4 strain (which encodes the T4 type Vex2 receptor). In words: Killing in vitro by synthetic R6 peptide. The conditions noted are these: synthetic R6 peptide added to a T4 strain. Type of assay: cell-based, pneumococcus. The source says:
Clinical isolates were sequenced and a predominance of the R6 type amino acid sequence for the P27 peptide and of the Type 4 amino acid sequence for the Vex2 transporter was found. Out of fourteen isolates that were screened for Vex2, twelve had the Type 4 allele and only two had the R6 type allele. Eleven of the fourteen isolates were also screened for the P27 peptide. Nine were of the R6 type P27 allele (SEQ ID NO:60) and only two were of the Type 4 P27 allele. Thus, most of the isolates examined encoded an R6 type peptide (SEQ ID NO:60) and a T4 type Vex transporter. Importantly, two of the three tolerant strains encoded either the R6 type P27 peptide and the R6 type Vex2, or alternatively, the T4 type P27 peptide and the T4 type Vex2 receptor indicating an over-representation of these “matching” combinations in tolerant strains. Furthermore, isolates encoding a mix of R6/T4 type P27 peptide/Vex2 receptor were more susceptible to being killed in vitro, i.e. when the synthetic R6 peptide was added to a T4 strain (which encodes the T4 type Vex2 receptor) there was about 10-20% more bioactivity. Thus, genotype combinations comprising the R6 type P27 peptide and the R6 type Vex2 receptor or the T4 type P27 peptide and the T4 type Vex2 receptor may facilitate the tolerant phenotype. […]

In a further assay the test system is pneumococcal strain R6. In words: Cell growth curves (OD 620 nm) and viability of R6 with peptide. The conditions noted are these: peptides at 100 μM added to growing R6 at OD 620 nm of 0.1. The assay is classed as cell-based, Streptococcus pneumoniae. The procedure: (§1) Cell growth curves were performed in the presence or absence of the test reagents as specified. In short, samples were prepared as follows: 1 ml of a pneumococcus culture was placed into 10 ml of prewarmed Semisynthetic (C+Y) medium. The optical density (OD) of the bacteria was monitored at 620 nm until an OD of approximately 0.1 was reached. At this point the test reagents were administered to the samples. The cells were cultured for up to 11 hours at 37° Celsius, and the OD at 620 nm was monitored every hour. A decrease in OD 620 is indicative of cell lysis, an increase is indicative of bacterial growth. No change in optical density indicates growth inhibition.
To characterize the antibacterial activity of the peptide, pneumococcal strain R6 which is sensitive to penicillin was exposed to 0.1 mM of the peptide having the amino acid sequence of SEQ ID NO:2 at an optical density of 0.01 (bacterial density of 3×10^6 cfu/ml). Bacterial growth as measured by optical density was followed for 11 hours and viability was assessed by plating on blood agar. […] Four hours after the start of the experiment, the control strain grew from 3×10^6 to 1.2×10^7 cfu/ml. In contrast, four hours after addition of the peptide, the viable bacterial number decreased from 3×10^6 to 3×10^4 CFU/ml (10^3-fold lower than the control).
The fact that the peptide is active in the range below 1 μg/ml places the potency of its antibacterial effect in the same range as conventional antibiotics.
R6 with no peptide was the control and underwent exponential growth. […] This enhanced activity may result from an improvement in folding of the peptide or greater access to the bacterial target.

In assay [2] the test system is autolysin deficient strain Lyt 4-4. Nature of the assay: Growth and killing of autolysin deficient strain. Type of assay: cell-based, Streptococcus pneumoniae. The conditions noted are these: compared with R6. The procedure:
The addition of the additives were made at time “0” hours. The strain of bacteria cultured was the Lyt-4-4 strain of Streptococcus pneumoniae which harbors a mutation leading to the loss of LytA activity. The peptide having the amino acid sequence of SEQ ID NO:2 was added as indicated at a concentration of 0.1 mM. Lyt-4-4 lacks active autolysin LytA and is therefore tolerant to penicillin treatment.
as §1
This antibacterial effect was also demonstrable in bacteria mutated so as to prevent autolysis by point mutation in the autolysin, as in the autolysin deficient strain Lyt 4-4. […]

Another assay concerns Lyt 4-4. In words: Loss of chain formation (morphology). Type of assay: cell-based, Streptococcus pneumoniae. The conditions noted are these: Lyt-4-4, P27 added. An excerpt:
Loss of chain formation is a measure of antibacterial activity independent of autolysin.
Strains of pneumococcus that are tolerant to penicillin, such as Lyt 4-4, grow in long chains as compared to the diplococcal morphology of wild type pneumococci. FIG. 6A illustrates these chains, which extend to 30-50 bacteria in length.
P27 is capable of triggering different autolytic pathways: To identify the relationship between P27 and the activation of the autolysin LytA, the bactericidal effect of the peptide on the pneumococcal mutant Lyt-4-4 (which is deficient in the major autolysin), was investigated. […] Compared to the diplococcal morphology of wild type pneumococci, pneumococci lacking an active autolysin grow in long chains.

Another assay deals with parent strain R6. Nature of the assay: Antimicrobial peptide sensitivity test (growth, viability). The assay is classed as cell-based, S. pneumoniae. The procedure: (§2) FIGS. 15A-15C show the effect of the synthetic peptide homolog P27 on induced growth inhibition. […] Cultures were in the early exponential phase of growth (10^6 cfu/ml) when treated with the synthetic peptide, P27. FIG. 15B is a block diagram showing the viability counts (after one hour) of parent strain R6, and loss of function mutants vncS, vncR, vex1, vex3, following the addition of 0.1 mM P27. R6 without the peptide is the positive control. […] Experimental conditions are the same as in FIG. 15A.
Cultures in the early exponential phase (10^6 cfu/ml) were treated with 0.1 mM P27 (*), 14-mer C-terminal peptide (□), 14-mer N-terminal peptide (Δ), a truncate lacking the 5C-terminal amino acids (◯) or an alternative peptide (⋄).
(§3) Anitmicrobial peptide sensitivity tests: Survival and autolysis rates in the presence of antimicrobial peptides were determined by exposing the parent strain R6 and the vncS deficient mutant to different concentrations (0.05 to 200 μM) of P27 or cecropin B (American Peptide Company, Sunnyvale, Calif., USA) at an OD620nm 0.05 (10^6 cfu/ml). For the disk diffusion assay, agar plates were seeded with a lawn of S. pneumoniae, Enterococcus faecalis, E. faecium, Streptococcus agalactiae, S. pyogenes or Staphylococcus aureus. The plates were incubated for 12 hours at 37° C. with a disk soaked with the synthetic P27 (2 mM). The size of the halo was determined with a ruler.
To determine the biological effect of P27, cultures of the parent strain R6 at an OD620nm of 0.1 were exposed to 0.1 mM of the synthetic peptide homolog P27 having the amino acid sequence of SEQ ID NO:44. […] This behavior is distinct from all other antibiotics described to date, which have a clear cut MIC.

For the next assay, the system named is vncS deficient mutant. Described as above. The assay is classed as cell-based, S. pneumoniae. The conditions noted are these: 0.1 mM P27. The procedure:
as §2, §3

Assay [3] deals with different streptococcal species and Staphylococcus aureus. In words: Disk diffusion assay. The conditions noted are these: disk soaked with synthetic P27 (2 mM). Type of assay: cell-based. How it is done:
as §3
On the technique in general: Agar diffusion results depend on both activity and mobility in agar.

The subject of assay [4] is clinical pneumococcal isolates, which had no defect in the histidine/kinase VncS. In words: Growth of clinical isolates exposed to P27. The assay is classed as cell-based, pneumococcus. The conditions noted are these: 0.1 mM of P27. The procedure: To investigate if the peptide P27 was not only capable of triggering different death pathways but was in fact, obligatory, a mutant deficient in P27 was investigated for antibiotic tolerance. […] This was confirmed by Western blot analysis. After addition of 10×MIC of vancomycin, the vexcp3 mutant underwent less than 2 log kill in 4 hours in contrast to 4 log kill of the wild type (FIG. 18A). […] To exclude the possibility that tolerance of the vexp3 mutant resulted from changes in either the expression or intrinsic activity of the autolysin LytA, Western blot analysis of LytA of the vexp3 mutant was performed. […] However, exogenous autolysin from vexp3 mutant was as efficient as that from wild type pneumococcus at reconstitution of lysis of the autolysin deficient strain Lyt-4-4 (FIG. 18C). […] To investigate if this phenomenon was restricted to mutations in VncS or rather to the antibiotic tolerant phenotype, clinical pneumococcal isolates, which had no defect in the histidine/kinase VncS (verified by sequencing), were exposed to 0.1 mM of P27. […] This supports the conclusion that VncS might function as a receptor for P27.

Assay [5] has as its system leucine deprived R6 cells. In words: Stringent response: lysis after leucine deprivation. The assay is classed as cell-based, S. pneumoniae. The conditions noted are these: 10×MIC of penicillin or vancomycin, 0.2 mM P27, or combination. The procedure:
P27 and the stringent response mechanism: The stringent response is believed to prevent the death pathway. To clarify the relationship of the stringent response to P27 activity, protein synthesis of R6 was inhibited by leucine deprivation and the effect of P27 was monitored (FIG. 19). […] The minimum concentration of penicillin required to cause penicillin dependent autolysis was equal to its MIC ([…]).

For assay [6], the system named is clinical pneumococcal isolate. In words: Rabbit model of pneumococcal meningitis. Type of assay: in vivo. The conditions noted are these: single intrathecal injection of 5 mg/kg, over 8 hours. The procedure: Rabbit model of pneumococcal meningitis: Pneumococcal meningitis was established according to a standard protocol [Tauber and Zwahlen, Methods Enzymol., 235:92-106 (1994)]. After withdrawal of CSF (300 μl), 10^4 bacteria of a vancomycin tolerant clinical serotype 23 isolate (RNET05) in 200 μl saline was introduced intracisternally in all animals. The rabbits in group one received no treatment, group two received vancomycin (60 mg/kg) six hours after infection: group three received a combination of vancomycin (60 mg/kg) and P27 (4 mg/kg) six hours after infection and group four received P27 (4 mg/kg) six hours after infection. At six hour intervals. CSF (200 μl) was withdrawn and tested for bacterial and leukocyte density.

Assay [7] deals with antibiotic sensitive and LytA deficient bacteria. Nature of the assay: Potentiation of the bactericidal effect of penicillin. Type of assay: cell-based, S. pneumoniae.

“MRKEFHNVLSSDQLLTDKRPARDYNRK (Streptococcus Pneumoniae) [synthetic R6 peptide]”: the “more bioactivity (killing in vitro)” value in assay [1] is listed as 10-20%.

Consider “MRKEFHNVLSSGQLLADKRPARDYNRK (listed as Streptococcus pneumoniae) [Peptide P27]”, for which the “ability to inhibit R6 growth” value in the assay on pneumococcal strain R6 was “the same effect”. Further, the “bactericidal effect on Lyt-4-4” value in assay [2] is “still killed by P27 but not as efficiently as R6”. In the assay on Lyt 4-4, the chain formation entry was “reversion of the chains to diplococci”. For the same sequence, the “growth of R6” value with parent strain R6 (0.1 mM P27, OD620nm of 0.1) is recorded as “potent growth inhibition”. For the same sequence, in the assay on parent strain R6 (R6), the “concentrations at which a substantial loss of viability was demonstrated” value was “greater than 0.05 mM”. For the same sequence, the inhibition of growth entry with parent strain R6 (R6, 50 nM P27) was “marginal”; in the assay on parent strain R6 (R6, 0.2 mM P27), “complete growth arrest”. Further, in the assay with parent strain R6 (R6, 50 nM to 0.2 mM), the “dose dependence of the extent of growth inhibition” value is given as “dose dependent”. For the same sequence, the loss of viability in the assay on parent strain R6 (R6, 0.1 mM P27) amounted to 2 log units. Also, the “growth inhibition or cell death” value in the assay with vncS deficient mutant was “did not result in growth inhibition or even cell death”. In addition, in assay [3], the “antibacterial activity against other species” value was “did not show antibacterial activity”. The “growth of clinical isolates” value in [4] is listed as “clear reduction in growth”. Further, the “lysis of R6 under leucine deprivation” value in assay [5] was “neither the addition of 10×the MIC of penicillin or vancomycin nor the addition of 0.2 mM P27 resulted in lysis”. In [6], the “kill of a clinical pneumococcal isolate” value is “greater than 2 log”. For the same sequence, the “effect on bactericidal effect of penicillin” value in assay [7] is “potentiates the bactericidal effect of penicillin”.
